Holding throughout (type): biochemical
In assay [1] the target is T1, uPA (Homo sapiens, UniProt P00749).
T1 construct: purchased Nodia
The assay can be described thus: uPA inactivation kinetics from progress curves (kobs versus inhibitor concentration, kapp). Particulars: 250 μM substrate, 37° C. Here is the method: (§1) Inhibitor stock solutions were prepared in DMSO and stored at −20° C. Because the compounds described in this paper completely inactivate uPA following pseudofirst-order kinetics, the IC50 value is inversely correlated with the second-order rate constant of inactivation. For a simple pseudofirst-order inactivation process, the activity after incubation with inhibitor (vi) varies with the inhibitor concentration (i), as described in the following equation: […]
where vo is the activity in absence of inhibitor, k is the second-order rate constant of inactivation, and t is the time. The inactivation rate constant was determined from the time course of inhibition.
The inhibitor was mixed with the substrate (250 μM final concentration), and the buffer solution with the enzyme was added at the time zero. The inhibitor concentrations were chosen to obtain total inhibition of the enzyme within 20 min. The progress curves show the absorbance of p-nitroanilide produced as a function of time. Initially, no inhibitor is bound to the enzyme, and the tangent to the progress curve (dA/dt) is proportional to the concentration of the free enzyme. The concentration of free enzyme decreases over time due to the kinetics of inhibitor binding, as described above. Progress curves were recorded in pseudofirst-order conditions ([I]0>>[E]0) and with less than 10% conversion of the substrate during the entire time course. In these conditions, dA/dt decreases exponentially with time. The progress curves were fitted with the integrated rate equation to yield a value for kobs, a pseudofirst-order rate constant
At=v0[1−e^−k^obs^t]/kobs+A0
where At=absorbance at time t, A0=absorbance at time zero, and v0=uninhibited initial rate.
The apparent second-order rate constant (kapp) was calculated from the slope of the linear part of the plot of kobs versus the inhibitor concentration ([I]0). In case of competition between the inhibitor and the substrate, kapp is smaller than the “real” second order rate constant k discussed above because a certain fraction of the enzyme is present as an enzyme-substrate complex. kapp depends on the substrate concentration used in the experiment, as described by Lambeir et al.^40 For most final compounds, the kobs versus [I]0 plot was not linear, but could be fitted with a hyperbolic function: kobs=k2[I]0/(K1+[I]0) (two step mechanism). Where K1 is the dissociation constant of the reversible enzyme-inhibitor complex and k2 is the first-order rate constant associated with irreversible modification of the enzyme. A kapp could be calculated as k2/K1.

The target of assay [2] is T1, uPA. The assay can be described thus: uPA inhibition: in vitro evaluation, IC50 with chromogenic substrate Biophen CS-61(44). Particulars: 15 min preincubation at 37° C.; Tris buffer pH 8.8; 250 μM substrate. How it is done: Enzymatic activity was measured at 37° C. in a Spectramax 340 (Molecular Devices) microtiter plate reader using the chromogenic substrate Biophen CS-61(44) (LpyroGlu-Gly L-Arg-p-NA.HCl), with a Km of 80 μM.
The substrate and human enzyme were obtained from Nodia. The reaction was monitored at 405 nm, and the initial rate was determined between 0 and 0.25 absorbance units in 20 min. The reaction mixture contained 250 μM substrate and approximately 1 mU of enzyme in 145 μL of buffer in a final volume of 200 μL. A 50 mM Tris buffer, pH 8.8, was used. From each inhibitor concentration, 5 μL was added, obtaining a final concentration from 0 to 250 μM in a total volume of 0.2 mL. Activity measurements were routinely performed in duplicate. […] IC50 values were obtained by fitting the data with the four-parameter logistics equation using Grafit 5.
where s=slope factor, v=rate, I0=inhibitor concentration, and range=the fitted uninhibited value minus the background. The equation assumes the y falls with increasing x.
as §1

Assay [3] deals with T2, thrombin (from human plasma) (Homo sapiens, UniProt P00734).
T2 construct: thrombin (from human plasma, Sigma); purchased Sigma; host or cells: human plasma
Put plainly: Selectivity: thrombin inhibition, substrate Biophen CS-21(66). The conditions noted are these: 15 min preincubation; Tris buffer pH 8.3; 580 μM substrate. How it is done: (§2) The substrate and human enzyme were obtained from Nodia. The reaction was monitored at 405 nm, and the initial rate was determined between 0 and 0.25 absorbance units in 20 min. […] A 50 mM Tris buffer, pH 8.8, was used. From each inhibitor concentration, 5 μL was added, obtaining a final concentration from 0 to 250 μM in a total volume of 0.2 mL. Activity measurements were routinely performed in duplicate. […] IC50 values were obtained by fitting the data with the four-parameter logistics equation using Grafit 5.
(§3) The IC50 values for plasmin (from human plasma, Sigma), tPA (recombinant, Nodia), thrombin (from human plasma, Sigma), and FXa were determined in the same way as for uPA.
(§4) For tPA and thrombin, Tris buffer, pH 8.3, was used, for FXa, Tris buffer, pH 8.3, for plasmin, Tris buffer, pH 7.4, was used.

Assay [4] has as its target T3, plasmin (from human plasma) (Homo sapiens, UniProt P00747).
T3 construct: purchased Sigma; host or cells: human plasma
Put plainly: Selectivity: plasmin inhibition, substrate Biophen CS-21(66). Particulars: 15 min preincubation; Tris buffer pH 7.4; 580 μM substrate. Here is the method:
as §2, §3, §4

In assay [5] the target is FXa (Homo sapiens, UniProt P00742). The assay can be described thus: Selectivity: FXa inhibition, substrate Biophen CS-11(32). The conditions noted are these: for IC50: 15 min preincubation, Tris buffer pH 8.3, 522 μM substrate; for FXa % (I) @ 250: at 250 (μM).
For assay [6], the target named is T4, tPA (recombinant) (Homo sapiens, UniProt P00750).
T4 construct: purchased Nodia
The assay can be described thus: Selectivity: tPA inhibition, substrate Biophen CS-05(88). The conditions noted are these: for IC50: 15 min preincubation, Tris buffer pH 8.3, 1.25 mM substrate. How it is done: as §2, §3, §4

Where [7] appears, read: apparent second-order rate constant from slope of kobs versus [I]0, no asterisk.
[8] abbreviates: asterisked: compound showed a two-step mechanism, kapp calculated as k2/K1.

T3 sequence (P00747 581-810 limits assumed): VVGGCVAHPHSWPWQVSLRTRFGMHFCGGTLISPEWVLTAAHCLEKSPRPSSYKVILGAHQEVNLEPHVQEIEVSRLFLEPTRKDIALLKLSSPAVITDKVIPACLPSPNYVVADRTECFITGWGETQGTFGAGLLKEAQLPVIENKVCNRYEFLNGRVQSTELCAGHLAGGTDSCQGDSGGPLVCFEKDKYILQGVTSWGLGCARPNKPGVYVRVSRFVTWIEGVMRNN
T3 sequence (P00747 97-580 partner limits assumed): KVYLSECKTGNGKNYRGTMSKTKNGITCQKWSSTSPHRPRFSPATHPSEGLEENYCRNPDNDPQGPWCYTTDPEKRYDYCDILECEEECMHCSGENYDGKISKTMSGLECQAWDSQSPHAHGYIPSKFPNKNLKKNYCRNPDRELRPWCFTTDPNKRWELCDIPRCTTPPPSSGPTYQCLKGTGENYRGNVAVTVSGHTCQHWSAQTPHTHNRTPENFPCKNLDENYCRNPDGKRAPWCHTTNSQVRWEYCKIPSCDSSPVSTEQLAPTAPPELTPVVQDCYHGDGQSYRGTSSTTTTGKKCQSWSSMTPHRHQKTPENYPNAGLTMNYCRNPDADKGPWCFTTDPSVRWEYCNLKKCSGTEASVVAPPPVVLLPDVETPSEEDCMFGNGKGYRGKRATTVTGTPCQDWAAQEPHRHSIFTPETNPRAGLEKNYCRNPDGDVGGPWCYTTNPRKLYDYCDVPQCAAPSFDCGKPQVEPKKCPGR
T4 sequence (P00750 36-562, species assumed): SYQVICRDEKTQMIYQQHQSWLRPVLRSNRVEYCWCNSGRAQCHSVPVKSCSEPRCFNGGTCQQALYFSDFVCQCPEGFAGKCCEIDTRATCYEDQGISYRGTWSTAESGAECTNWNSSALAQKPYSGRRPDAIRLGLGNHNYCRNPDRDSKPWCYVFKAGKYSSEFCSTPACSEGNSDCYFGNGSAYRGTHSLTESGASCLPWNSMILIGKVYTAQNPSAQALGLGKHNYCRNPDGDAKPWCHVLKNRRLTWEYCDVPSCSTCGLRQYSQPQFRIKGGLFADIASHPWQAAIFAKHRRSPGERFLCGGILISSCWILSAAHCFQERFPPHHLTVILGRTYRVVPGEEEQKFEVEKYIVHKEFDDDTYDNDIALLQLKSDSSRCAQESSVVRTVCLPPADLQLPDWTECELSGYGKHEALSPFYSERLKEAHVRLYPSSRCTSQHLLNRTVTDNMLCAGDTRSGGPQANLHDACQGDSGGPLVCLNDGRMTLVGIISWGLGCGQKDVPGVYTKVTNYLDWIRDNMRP
Chain of FXa (P00742 235-488 limits assumed): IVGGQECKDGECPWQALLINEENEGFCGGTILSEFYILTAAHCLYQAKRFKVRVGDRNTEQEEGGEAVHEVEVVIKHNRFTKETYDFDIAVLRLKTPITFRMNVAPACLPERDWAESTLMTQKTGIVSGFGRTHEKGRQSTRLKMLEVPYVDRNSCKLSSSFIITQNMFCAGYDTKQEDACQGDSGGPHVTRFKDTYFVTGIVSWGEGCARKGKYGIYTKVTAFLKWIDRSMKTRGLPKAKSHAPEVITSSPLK
Chain of FXa (P00742 41-179 partner limits assumed): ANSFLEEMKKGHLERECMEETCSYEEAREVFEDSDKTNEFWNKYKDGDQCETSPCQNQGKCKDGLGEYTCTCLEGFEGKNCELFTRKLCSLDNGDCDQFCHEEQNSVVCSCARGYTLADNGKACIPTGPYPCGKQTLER

Turning to “2-((1E,3E,5E)-5-(1-(6-((2-(4-(3-(((1-(diphenoxyphosphoryl)-2-(4-guanidino phenyl)ethyl)carbamoyl)oxy)propyl)-1H-1,2,3-triazol-1-yl)ethyl)amino)-6-oxohexyl)-3,3-dimethyl indolin-2-ylidene)penta-1,3-dien-1-yl)-1,3,3-trimethyl-3H-indol-1-ium [Final compound 9]”, in assay [1] (setting [7]), the “uPA: kapp” value turned out to be 1600 ± 100 M⁻¹ s⁻¹. For the same compound, the half-inhibitory concentration (IC50) was 0.0589 ± 0.0017 µM in assay [2], above 2.5 µM in assay [3] and above 2.5 µM in assay [4].

Consider `CCN(CC)c1ccc2c(-c3ccccc3C(=O)N3CCN(C(=O)CCCCCCCn4cc(COCCOC(=O)NC(Cc5ccc(NC(=N)N)cc5)P(=O)(Oc5ccccc5)Oc5ccccc5)nn4)CC3)c3ccc(=[N+](CC)CC)cc-3oc2c1.O=C(O)C(F)(F)F.[Cl-]` (stereo not drawn) [Final compound 1, 2,2,2-trifluoroacetic acid, N-(6-(diethylamino)-9-(2-(4-(8-(4-((2-(((1-(diphenoxyphosphoryl)-2-(4-guanidinophenyl)ethyl)carbamoyl)oxy)ethoxy)methyl)-1H-1,2,3-triazol-1-yl)octanoyl)piperazine-1-carbonyl)phenyl)-3H-xanthen-3-ylidene)-N-ethylethanaminium chloride], for which the “FXa % @ 2.5” value in assay [5] (at 2.5 (μM)) came out at 11% @ 2.5. In addition, in assay [1] (setting [7]), the “uPA: kapp” value is 1700 ± 100 M⁻¹ s⁻¹. For the same compound, the concentration for half-maximal inhibition (IC50) in assay [2] was determined as 0.017 ± 0.002 µM; in assay [3] it was 7.9 ± 1.7 µM; in assay [6] it was 7.9 ± 0.3 µM; in assay [4], 5.4 ± 0.6 µM.

`CCN(CC)c1ccc2c(-c3ccccc3C(=O)N3CCN(C(=O)CCCCCCCn4cc(COCCOCCOC(=O)NC(Cc5ccc(NC(=N)N)cc5)P(=O)(Oc5ccccc5)Oc5ccccc5)nn4)CC3)c3ccc(=[N+](CC)CC)cc-3oc2c1` (stereo not drawn) [Final compound 2, 2,2,2-trifluoroacetic acid, N-(6-(diethylamino)-9-(2-(4-(8-(4-(11-(diphenoxyphosphoryl)-12-(4-guanidinophenyl)-9-oxo-2,5,8-trioxa-10-azadodecyl)-1H-1,2,3-triazol-1-yl)octanoyl)piperazine-1-carbonyl)phenyl)-3H-xanthen-3-ylidene)-N-ethylethanaminium chloride]: the half-maximal inhibitory concentration (IC50) was found to be 176 ± 128 µM in assay [5]; 0.019 ± 0.003 µM in assay [2]; 24 ± 21 µM in assay [3]; 33 ± 13 µM in assay [6]; 5.4 ± 1.6 µM in assay [4]. The “uPA: kapp” value in assay [1] (setting [7]) turned out to be 1300 ± 70 M⁻¹ s⁻¹.

In the case of `CCN(CC)c1ccc2c(-c3ccccc3C(=O)N3CCN(C(=O)CCCCCCCn4cc(COCCOCCOCCOC(=O)NC(Cc5ccc(NC(=N)N)cc5)P(=O)(Oc5ccccc5)Oc5ccccc5)nn4)CC3)c3ccc(=[N+](CC)CC)cc-3oc2c1` (stereo not drawn) [Final compound 3, 2,2,2-trifluoroacetic acid, N-(6-(diethylamino)-9-(2-(4-(8-(4-(14-(diphenoxyphosphoryl)-15-(4-guanidinophenyl)-12-oxo-2,5,8,11-tetraoxa-13-azapentadecyl)-1H-1,2,3-triazol-1-yl)octanoyl)piperazine-1-carbonyl)phenyl)-3H-xanthen-3-ylidene)-N-ethylethanaminium chloride], the IC50 in assay [5] came to 39 ± 22 µM; in assay [2], 0.03 ± 0.006 µM; in assay [3], 13.8 ± 1.3 µM; in assay [6] it was 42 ± 5 µM; in assay [4] it was 11 ± 4 µM. In assay [1] (setting [7]), the “uPA: kapp” value came to 2600 ± 200 M⁻¹ s⁻¹.

On to `CCN(CC)c1ccc2c(-c3ccccc3C(=O)N3CCN(C(=O)CCCCCCCn4cc(CCCOC(=O)NC(Cc5ccc(NC(=N)N)cc5)P(=O)(Oc5ccccc5)Oc5ccccc5)nn4)CC3)c3ccc(=[N+](CC)CC)cc-3oc2c1.O=C(O)C(F)(F)F.[Cl-]` (stereo not drawn) [Final compound 4, 2,2,2-trifluoroacetic acid, N-(6-(diethylamino)-9-(2-(4-(8-(4-(3-(((1-(diphenoxyphosphoryl)-2-(4-guanidinophenyl)ethyl)carbamoyl)oxy)propyl)-1H-1,2,3-triazol-1-yl)octanoyl)piperazine-1-carbonyl)phenyl)-3H-xanthen-3-ylidene)-N-ethylethanaminium chloride], for which the IC50 in assay [5] stood at 65 ± 14 µM; in assay [2], 0.025 ± 0.007 µM; in assay [3] it was 3.5 ± 0.8 µM; in assay [6] it was 8 ± 1 µM; in assay [4], 4.6 ± 2.3 µM. For the same compound, in assay [1] (setting [7]), the “uPA: kapp” value was found to be 4900 ± 90 M⁻¹ s⁻¹.

Regarding `CCN(CC)c1ccc2c(-c3ccccc3C(=O)N3CCN(C(=O)CCCCCCCn4cc(CCCOC(=O)NC(Cc5ccc(NC(=N)N)cc5)P(=O)(Oc5ccc(NC(C)=O)cc5)Oc5ccc(NC(C)=O)cc5)nn4)CC3)c3ccc(=[N+](CC)CC)cc-3oc2c1.O=C(O)C(F)(F)F.[Cl-]` (stereo not drawn) [Final compound 5, 2,2,2-trifluoroacetic acid, N-(9-(2-(4-(8-(4-(3-(((1-(bis(4-acetamidophenoxy)phosphoryl)-2-(4-guanidinophenyl)ethyl)carbamoyl)oxy)propyl)-1H-1,2,3-triazol-1-yl)octanoyl)piperazine-1-carbonyl)phenyl)-6-(diethylamino)-3H-xanthen-3-ylidene)-N-ethylethanaminium chloride], the “FXa % (I) @ 250” value in assay [5] stood at 90% @ 250. For the same compound, the “uPA: kapp” value in assay [1] (setting [8]) is on record as 52 × 10^2 ± 1 × 10^2 * M^−1 s^−1. For the same compound, the 50% inhibitory concentration (IC50) was 0.022 ± 0.002 µM in assay [2], 5.2 ± 0.2 µM in assay [3], above 62 µM in assay [6] and 5.6 ± 1.5 µM in assay [4].

As for `CC1=CC(C)=[N+]2C1=C(CCCCCCCn1cc(CCCOC(=O)NC(Cc3ccc(NC(=N)N)cc3)P(=O)(Oc3ccccc3)Oc3ccccc3)nn1)c1c(C)cc(C)n1[B-]2(F)F.O=C(O)C(F)(F)F` (stereo not drawn) [Final compound 6, 10-(7-(4-(3-(((1-(diphenoxyphosphoryl)-2-(4-guanidinophenyl)ethyl)carbamoyl)oxy)propyl)-1-1,2,3-triazol-1-yl)heptyl)-5,5-difluoro-1,3,7,9-tetramethyl-5H-dipyrrolo[1,2-c:2′,1′-f][1,3,2]diazaborinin-4-ium-5-uide 2,2,2-trifluoroacetate], the “FXa % (I) @ 250” value in assay [5] is reported as 19% I @ 250 ^. The “uPA: kapp” value in assay [1] (setting [8]) is recorded as 12.2 × 10^2 ± 0.5 × 10^2 * M^−1 s^−1. Besides, the IC50 was 0.0467 ± 0.0015 µM in assay [2], around 125 µM in assay [3] and 0.674 ± 0.123 µM in assay [4]. Also, the “tPA % I @ 250” value in assay [6] (at 250 (μM)) stood at 19% I @ 250.

As for `O=C(O)C(F)(F)F.[N-]=[N+]=NCCOCCOCCOC(=O)NC(Cc1ccc(NC(=N)N)cc1)P(=O)(Oc1ccccc1)Oc1ccccc1` (stereo not drawn) [Intermediate 61, 2-(2-(2-azidoethoxy)ethoxy)ethyl 1-(diphenoxyphosphoryl)-2-(4-guanidinophenyl)ethylcarbamate 2,2,2-trifluoroacetate], the “FXa % (I) @ 250” value in assay [5] was found to be 51% @ 250. Also, in assay [1] (setting [8]), the “uPA: kapp” value is recorded as 10 × 10^3 ± 4 × 10^3 * M^−1 s^−1. In addition, the results for the half-inhibitory concentration (IC50) in assay [2], in assay [3] and in assay [4] were 0.015 ± 0.002 µM, 13 µM and 5.7 ± 0.6 µM, respectively.

As a reminder, the IC50 is the concentration that inhibits the measured activity by half.

Values taken from US20140079632A1, “ACTIVITY-BASED PROBES FOR THE UROKINASE P[…]” (UNIVERSITEIT ANTWERPEN, priority 2011, published 2014).
